In brackets after ≈: the same amount, converted by molar mass. Activity calls are given as the source filed them. The calls are words filed in the database; no cut-off is given here.
Legend:
[1] = tested on: P388; assay: Cytotoxicity against mouse P388 cells; assay type: functional; details: for EC50: read-out: ED50 (the source's name)
[2] = tested on: KB; assay: Cytotoxicity against human KB cells; assay type: functional; details: for EC50: read-out: ED50 (the source's name)

Row | SMILES | ED50 [1] | ED50 [2] | EC50 [1] [µg/mL] | EC50 [2] [µg/mL]
1 | CC[C@H]1N[C@H]2C[C@@]3(C(=O)N(OC)c4ccccc43)[C@@H]3OC[C@H]2[C@H]1[C@@H]3O | inactive | inactive | – | –
2 | CC[C@H]1N[C@H]2C[C@@]3(C(=O)N(OC)c4ccccc43)[C@H]3C[C@@H]1[C@@H]2CO3 | inactive | inactive | – | –
3 | C=C[C@]12CN(C)[C@@H]3[C@H]4CO[C@H](C[C@H]41)[C@]1(C(=O)N(OC)c4ccccc41)[C@@H]32 | inactive | inactive | – | –
4 | C/C=C1\CN2[C@H]3C[C@H]1[C@H](CO)[C@@H]2Cc1c3[nH]c2ccccc12 | inactive | inactive | – | –
5 | C[C@H]1[C@H](C)CC[C@]2(C(=O)O)CC[C@]3(C)C(=CC[C@@H]4[C@@]5(C)CC[C@H](O)C(C)(C)[C@@H]5CC[C@]43C)[C@H]12 | inactive | inactive | – | –
6 | C/C=C1\CN(C)[C@H]2C[C@@]3(C(=O)N(OC)c4ccccc43)[C@H]3C[C@@H]1[C@@H]2CO3 | inactive | inactive | – | –
7 | CC(=O)C1=CC[C@H]2[C@@H]3CCC4=CC(=O)CC[C@]4(C)[C@H]3C[C@@H](O)[C@]12C | – | – | 2.8 (≈ 8.52 µM) | 2 (≈ 6.09 µM)
8 | CCC1=N[C@H]2C[C@@]3(C(=O)N(OC)c4ccccc43)[C@H]3C[C@@H]1[C@@H]2CO3 | inactive | inactive | – | –
9 | COc1cc2ccc(=O)oc2cc1O | inactive | inactive | – | –
10 | C=C[C@]12CN(C)[C@@H]3[C@H]4CO[C@H](C[C@H]41)[C@]1(C(=O)Nc4ccccc41)[C@@H]32 | inactive | inactive | – | –
11 | C=C[C@]12C(=O)N(C)[C@@H]3[C@H]4CO[C@H](C[C@H]41)[C@]1(C(=O)Nc4ccccc41)[C@@H]32 | inactive | inactive | – | –
12 | CCC1=N[C@H]2C[C@@]3(C(=O)N(OC)c4ccccc43)[C@@H]3OC[C@H]2[C@H]1[C@@H]3O | inactive | inactive | – | –
13 | CC(=O)C1=CC[C@H]2[C@@H]3CC[C@H]4CC(=O)CC[C@]4(C)[C@H]3C[C@@H](O)[C@]12C | – | – | 0.9 (≈ 2.72 µM) | 0.7 (≈ 2.12 µM)
